From US11136296B2, “Substituted N-arylethyl-2-arylquinoline-4-carboxamides and use thereof” (Bayer Aktiengesellschaft, priority 2017, dated 2021)

Biological target: FP receptor (Homo sapiens (Human), UniProt P43088)
Assay: In vitro test of inhibition of human FP receptor activity (PGF2α-induced calcium flux in FP-expressing CHEM1 cells)
Type: cell-based
Details: PGF2α-induced (2 nM) calcium flux in FP-expressing CHEM1 cells; some as mean values from multiple determinations
Description: Table 1 below lists the IC50 values from this assay for individual working examples of the invention (some as mean values from multiple independent individual determinations): […]

Chain of FP receptor (P43088 whole entry): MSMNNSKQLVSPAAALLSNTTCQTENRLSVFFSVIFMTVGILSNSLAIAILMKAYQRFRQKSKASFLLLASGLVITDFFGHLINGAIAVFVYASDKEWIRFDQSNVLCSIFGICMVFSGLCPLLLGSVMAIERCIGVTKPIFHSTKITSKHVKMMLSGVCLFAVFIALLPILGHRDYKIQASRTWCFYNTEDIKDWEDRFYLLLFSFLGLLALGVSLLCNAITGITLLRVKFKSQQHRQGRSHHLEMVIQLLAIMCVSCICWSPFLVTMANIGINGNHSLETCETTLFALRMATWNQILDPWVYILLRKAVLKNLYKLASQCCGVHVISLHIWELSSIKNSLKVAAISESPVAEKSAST

| Structure (SMILES) | IC50 [nM] |
| --- | --- |
| Cc1c(-c2ccccc2)nc2ccc(Br)cc2c1C(=O)NCC(C(=O)O)c1ccc(F)cc1 (single isomer, unassigned) [Example 11, 3-{[(6-Bromo-3-methyl-2-phenylquinolin-4-yl)carbonyl]amino}-2-(4-fluorophenyl)propanoic Acid] | 470 |
| Cc1c(-c2ccccc2)nc2ccc(Br)cc2c1C(=O)NCC(C(=O)O)c1ccc(F)cc1 (single isomer, unassigned) [Example 12, 3-{[(6-Bromo-3-methyl-2-phenylquinolin-4-yl)carbonyl]amino}-2-(4-fluorophenyl)propanoic Acid] | 180 |
| Cc1c(-c2ccccc2)nc2ccc(Br)cc2c1C(=O)NCC(C(=O)O)c1ccc2c(c1)OCO2 (single isomer, unassigned) [Example 24, 2-(1,3-Benzodioxol-5-yl)-3-{[(6-bromo-3-methyl-2-phenylquinolin-4-yl)carbonyl]amino}propanoic Acid] | 580 |
| Cc1c(-c2ccccc2)nc2ccc(Br)cc2c1C(=O)NCC(C(=O)O)c1ccc2c(c1)OCO2 (single isomer, unassigned) [Example 25, 2-(1,3-Benzodioxol-5-yl)-3-{[(6-bromo-3-methyl-2-phenylquinolin-4-yl)carbonyl]amino}propanoic Acid] | > 1000 |
| Cc1c(-c2ccccc2)nc2ccc(Br)cc2c1C(=O)NCC(C)(C(=O)O)c1ncccc1Cl (single isomer, unassigned) [Example 27, 3-{[(6-Bromo-3-methyl-2-phenylquinolin-4-yl)carbonyl]amino}-2-(3-chloropyridin-2-yl)-2-methylpropanoic Acid] | 53 |
| Cc1c(-c2ccccc2)nc2ccc(Br)cc2c1C(=O)NCC(C)(C(=O)O)c1ncccc1Cl (single isomer, unassigned) [Example 28, 3-{[(6-Bromo-3-methyl-2-phenylquinolin-4-yl)carbonyl]amino}-2-(3-chloropyridin-2-yl)-2-methylpropanoic Acid] | 100 |
| Cc1c(-c2ccccc2)nc2ccc(Br)cc2c1C(=O)NCC(CC(=O)O)c1cccc(Cl)c1 (single isomer, unassigned) [Example 73, 4-{[(6-Bromo-3-methyl-2-phenylquinolin-4-yl)carbonyl]amino}-3-(3-chlorophenyl)butanoic Acid] | 86 |
| Cc1c(-c2ccccc2)nc2ccc(Br)cc2c1C(=O)NCC(CC(=O)O)c1cccc(Cl)c1 (single isomer, unassigned) [Example 74, 4-{[(6-Bromo-3-methyl-2-phenylquinolin-4-yl)carbonyl]amino}-3-(3-chlorophenyl)butanoic Acid] | 79 |
| Cc1c(-c2ccccc2)nc2ccc(Br)cc2c1C(=O)NCC(CC(=O)O)c1c(Cl)cccc1Cl (single isomer, unassigned) [Example 79, 4-{[(6-Bromo-3-methyl-2-phenylquinolin-4-yl)carbonyl]amino}-3-(2,6-dichlorophenyl)butanoic Acid] | 140 |
| Cc1c(-c2ccccc2)nc2ccc(Br)cc2c1C(=O)NCC(CC(=O)O)c1c(Cl)cccc1Cl (single isomer, unassigned) [Example 80, 4-{[(6-Bromo-3-methyl-2-phenylquinolin-4-yl)carbonyl]amino}-3-(2,6-dichlorophenyl)butanoic Acid] | 51 |
| Cc1cccc(C(CNC(=O)c2c(C)c(-c3ccccc3)nc3ccc(Br)cc23)CC(=O)O)c1 (single isomer, unassigned) [Example 94, 4-{[(6-Bromo-3-methyl-2-phenylquinolin-4-yl)carbonyl]amino}-3-(3-methylphenyl)butanoic Acid] | 96 |
| Cc1cccc(C(CNC(=O)c2c(C)c(-c3ccccc3)nc3ccc(Br)cc23)CC(=O)O)c1 (single isomer, unassigned) [Example 95, 4-{[(6-Bromo-3-methyl-2-phenylquinolin-4-yl)carbonyl]amino}-3-(3-methylphenyl)butanoic Acid] | 84 |
| Cc1c(-c2ccccc2)nc2ccc(Br)cc2c1C(=O)NCC(c1ccccc1Cl)C(C)(C)C(=O)O (single isomer, unassigned) [Example 112, 4-{[(6-Bromo-3-methyl-2-phenylquinolin-4-yl)carbonyl]amino}-3-(2-chlorophenyl)-2,2-dimethylbutanoic Acid] | 92 |
| Cc1c(-c2ccccc2)nc2ccc(Br)cc2c1C(=O)NCC(c1ccccc1Cl)C(C)(C)C(=O)O (single isomer, unassigned) [Example 113, 4-{[(6-Bromo-3-methyl-2-phenylquinolin-4-yl)carbonyl]amino}-3-(2-chlorophenyl)-2,2-dimethylbutanoic Acid] | 62 |
| Cc1c(-c2ccccc2)nc2ccc(Br)cc2c1C(=O)NCC(c1ccccc1Cl)S(=O)(=O)CC(=O)O (single isomer, unassigned) [Example 198, (+/−)-{[2-{[(6-Bromo-3-methyl-2-phenylquinolin-4-yl)carbonyl]amino}-1-(2-chlorophenyl)ethyl]sulfonyl}acetic Acid] | 400 |
| Cc1c(-c2ccccc2)nc2ccc(Br)cc2c1C(=O)NCC(c1ccccc1Cl)S(=O)(=O)CC(=O)O (single isomer, unassigned) [Example 199, {[2-{[(6-Bromo-3-methyl-2-phenylquinolin-4-yl)carbonyl]amino}-1-(2-chlorophenyl)ethyl]sulfonyl}acetic Acid] | 25 |
| Cc1c(-c2ccccc2)nc2ccc(Br)cc2c1C(=O)NCC(CCC(=O)O)c1cc(F)cc(F)c1F (single isomer, unassigned) [Example 232, 5-{[(6-Bromo-3-methyl-2-phenylquinolin-4-yl)carbonyl]amino}-4-(2,3,5-trifluorophenyl)pentanoic Acid] | 8.8 |
| Cc1c(-c2ccccc2)nc2ccc(Br)cc2c1C(=O)NCC(CCC(=O)O)c1cc(F)cc(F)c1F (single isomer, unassigned) [Example 233, 5-{[(6-Bromo-3-methyl-2-phenylquinolin-4-yl)carbonyl]amino}-4-(2,3,5-trifluorophenyl)pentanoic Acid] | 25 |
| Cc1c(-c2ccccc2)nc2ccc(Br)cc2c1C(=O)NCC(C(=O)O)c1ccccc1 (single isomer, unassigned; (+)) [Example 3, (+)-3-{[(6-Bromo-3-methyl-2-phenylquinolin-4-yl)carbonyl]amino}-2-phenylpropanoic Acid] | 270 |
| COc1ccccc1C(CNC(=O)c1c(C)c(-c2ccccc2)nc2ccc(Br)cc12)C(=O)O (single isomer, unassigned; (+)) [Example 9, (+)-3-{[(6-Bromo-3-methyl-2-phenylquinolin-4-yl)carbonyl]amino}-2-(2-methoxyphenyl)propanoic Acid] | 7.2 |
| Cc1c(-c2ccccc2)nc2ccc(Br)cc2c1C(=O)NCC(C)(C(=O)O)c1ccccc1 (single isomer, unassigned; (+)) [Example 15, (+)-3-{[(6-Bromo-3-methyl-2-phenylquinolin-4-yl)carbonyl]amino}-2-methyl-2-phenylpropanoic Acid] | 190 |
| CCC(CNC(=O)c1c(C)c(-c2ccccc2)nc2ccc(Br)cc12)(C(=O)O)c1ccccc1 (single isomer, unassigned; (+)) [Example 18, (+)-2-({[(6-Bromo-3-methyl-2-phenylquinolin-4-yl)carbonyl]amino}methyl)-2-phenylbutanoic Acid] | 120 |
| Cc1c(-c2ccccc2)nc2ccc(Br)cc2c1C(=O)NCC(O)(C(=O)O)c1ccccc1 (single isomer, unassigned; (+)) [Example 20, (+)-3-{[(6-Bromo-3-methyl-2-phenylquinolin-4-yl)carbonyl]amino}-2-hydroxy-2-phenylpropanoic Acid] | 97 |
| Cc1c(-c2ccccc2)nc2ccc(Br)cc2c1C(=O)NCC(C)(C(=O)O)c1ccccc1F (single isomer, unassigned; (+)) [Example 30, (+)-3-{[(6-Bromo-3-methyl-2-phenylquinolin-4-yl)carbonyl]amino}-2-(2-fluorophenyl)-2-methylpropanoic Acid] | 340 |
| Cc1c(-c2ccccc2)nc2ccc(Br)cc2c1C(=O)NCC(C)(C(=O)O)c1c(F)cccc1F (single isomer, unassigned; (+)) [Example 33, (+)-3-{[(6-Bromo-3-methyl-2-phenylquinolin-4-yl)carbonyl]amino}-2-(2,6-difluorophenyl)-2-methylpropanoic Acid] | 190 |
| Cc1c(-c2ccccc2)nc2ccc(Br)cc2c1C(=O)NCC(C)(C(=O)O)c1ccccc1Cl (single isomer, unassigned; (+)) [Example 37, (+)-3-{[(6-Bromo-3-methyl-2-phenylquinolin-4-yl)carbonyl]amino}-2-(2-chlorophenyl)-2-methylpropanoic Acid] | 160 |
| Cc1c(-c2ccccc2)nc2ccc(Br)cc2c1C(=O)NCC(F)(C(=O)O)c1ccccc1 (single isomer, unassigned; (+)) [Example 40, (+)-3-{[(6-Bromo-3-methyl-2-phenylquinolin-4-yl)carbonyl]amino}-2-fluoro-2-phenylpropanoic Acid] | 34 |
| Cc1c(-c2ccccc2)nc2ccc(Br)cc2c1C(=O)NCC(C)(C(=O)O)c1cccc(C(F)(F)F)c1 (single isomer, unassigned; (+)) [Example 43, (+)-3-{[(6-Bromo-3-methyl-2-phenylquinolin-4-yl)carbonyl]amino}-2-methyl-2-[3-(trifluoromethyl)phenyl]propanoic Acid] | 140 |
| COc1cccc(C(CNC(=O)c2c(C)c(-c3ccccc3)nc3ccc(Br)cc23)C(=O)O)c1 (single isomer, unassigned; (+)) [Example 46, (+)-3-{[(6-Bromo-3-methyl-2-phenylquinolin-4-yl)carbonyl]amino}-2-(3-methoxyphenyl)propanoic Acid] | 230 |
| Cc1c(-c2ccccc2)nc2ccc(Br)cc2c1C(=O)NCC(C(=O)O)c1cccc(Cl)c1 (single isomer, unassigned; (+)) [Example 49, (+)-3-{[(6-Bromo-3-methyl-2-phenylquinolin-4-yl)carbonyl]amino}-2-(3-chlorophenyl)propanoic Acid] | 69 |
